# Columns and labels:
# H 460 (lung carcinoma) = test: Cytostatic activity, MTT assay; format: cell-based, human; conditions: Homo sapiens, NCI-H460, 72 h, read-out: Tumour cell growth/IC50 H 460
# Experimental: (§1) The experiments were carried out on six human tumour and one murine cell lines, which are derived from five solid tumour types and two (one murine and one human) suspension tumour cell lines. The following cell lines were used: HCT 116 (colon carcinoma), SW 620 (colon carcinoma), MCF-7 (breast carcinoma), H 460 (lung carcinoma), L1210 (murine leukemia), CEM (human lymphoma) and HeLa (cervix carcinoma). […] Compounds 3d and 3e with a benzene ring in the amide moiety, exerted a somewhat stronger (but still rather poor) cytostatic effect (IC50 ≈ 20-90 µM). […] The compounds were also equally cytostatic against primary human embryonic lung (HEL) fibroblast cells (Table 2). The obtained data clearly point to the obligatory presence of the [4-chloro-3-(trifluoromethyl)phenyl]carbamoyl group being crucial for high potency. Also, the 4a–e series of compounds are far more lipophilic than the 2 and 3 series of compounds, which may be related to their increased cytostatic potential.
# (§2) HCT 116, SW 620, MCF-7, and H 460 cells were cultured as monolayers and maintained in Dulbecco’s modified Eagle medium (DMEM), supplemented with 10% fetal bovine serum (FBS), 2 mmol·L^–1 L-glutamine, 100 U·mL^–1 penicillin and 100 μg·mL^–1 streptomycin in a humidified atmosphere with 5% CO2 at 37 °C. The growth inhibition activity was assessed as described previously, according to the slightly modified procedure of the National Cancer Institute, Developmental Therapeutics Program. Briefly, the cells were seeded onto standard 96-well microtiter plates on day 0. The cell concentrations were adjusted according to the cell population doubling time (PDT): 3000 cells/well for HCT116 and SW 620 cell lines (PDT = 20–24 h) and 4,000 cells/well for MCF-7 cell lines (PDT = 33 h). Tested agents were then added in five consecutive 10-fold dilutions (10^–8 to 10^–4 mol·L^–1) and incubated for further 72 h. Working dilutions were freshly prepared on the day of testing. The solvent (DMSO) was also tested for eventual inhibitory activity by adjusting its concentration to be the same as in working concentrations (maximal concentration of DMSO was 0.25%). After 72 h of incubation, the cell growth rate was evaluated by performing the MTT assay (Promega) which detects dehydrogenase activity in viable cells. The absorbency (OD, optical density) was measured on a microplate reader at 570 nm. Each test point was performed in quadruplicate in at least three individual experiments. The results are expressed as IC50, which is the concentration necessary for 50% of inhibition. […] Each result is a mean value from three separate experiments.
# [1] = system: HCT 116 (colon carcinoma); test: Cytostatic activity, MTT assay; format: cell-based, human; conditions: Homo sapiens, HCT-116, 72 h, read-out: Tumour cell growth/IC50 HCT 116
# Experimental: as §1, §2
# MCF-7 (breast carcinoma) = test: Cytostatic activity, MTT assay; format: cell-based, human; conditions: Homo sapiens, MCF7, 72 h, read-out: Tumour cell growth/IC50 MCF-7
# Experimental: as §1, §2
# SW 620 (colon carcinoma) = test: Cytostatic activity, MTT assay; format: cell-based, human; conditions: Homo sapiens, SW-620, 72 h, read-out: Tumour cell growth/IC50 SW 620
# Experimental: as §1, §2
# CEM (human lymphoma) = test: Cytostatic activity, Coulter counter; format: cell-based; conditions: Homo sapiens; 72 h, cell number by Coulter counter; read-out: Tumour cell growth/IC50 CEM
# Experimental: as §1
# (§3) The cytostatic activity of the tested compounds against murine leukemia L1210, human cervix carcinoma HeLa, human embrionic lung (HEL) and T-lymphocyte CEM cells was determined with cells grown in suspension (L1210, CEM) or monolayers (HeLa, HEL) in 200 µL-wells of 96-well microtiter plates (initial cell number: 5–7.5 × 10^4 cells/well). After 48 (L1210) or 72 (CEM, HeLa, HEL) h, the tumour cell number was determined by the use of a Coulter counter.
# L1210 (murine leukemia) = test: Cytostatic activity, Coulter counter; format: cell-based; conditions: Mus musculus, L1210; 48 h, cell number by Coulter counter; read-out: Tumour cell growth/IC50 L1210
# Experimental: as §1, §3
# [2] = system: primary human embryonic lung (HEL) fibroblast cells; test: Cytostatic activity, Coulter counter; format: cell-based; conditions: Homo sapiens, Fibroblast; 72 h, cell number by Coulter counter; primary fibroblasts
# Experimental: as §1, §3
# HeLa (cervix carcinoma) = test: Cytostatic activity, Coulter counter; format: cell-based, human; conditions: Homo sapiens, HeLa; 72 h, cell number by Coulter counter; read-out: Tumour cell growth/IC50 HeLa
# Experimental: as §1, §3
# [3] = system: DNA synthesis in CEM cells; test: Antimetabolic activity: [CH3-3H]dThd incorporation (DNA synthesis) in CEM cell cultures; format: cell-based; conditions: Homo sapiens, CCRF-CEM, ~20 h, TCA-insoluble material
# From the text: (§4) A variety of compounds (2a, 3a, 4a with a cycloalkyl substituent directly attached to nitrogen atom, 2c, 3c, 4c with a cycloalkyl bound to nitrogen through a short spacer and 2e, 3e, 4e with an aromatic substituent) have been investigated on their inhibitory activity against DNA, RNA and protein synthesis in CEM cell cultures. The compounds were equally inhibitory to dThd (DNA synthesis), Urd (RNA synthesis) and Leu (protein synthesis) incorporation into TCA-insoluble cell material. The 2 series of compounds were least inhibitory whereas the 4 series were most inhibitory (IC50 in the lower micromolar range). Their antimetabolic IC50 values closely corresponded to their antiproliferative IC50 values. They also behaved as sorafenib in terms of antimetabolic potential (Table 3).
# (§5) The procedures have been modified from previously described methods. Human CEM cells were seeded in 96-well microtiter plates at 10 × 10^4 cells/200 µL-well in the presence of serial dilutions of the tested compounds. Then, 0.25 µCi of [CH3-^3H]dThd (radiospecificity: 52 Ci/mmol) or 1 µCi of [5-^3H]Urd (radiospecificity: 26 Ci/mmol) or [4,5-^3H]Leu (radiospecificity: 160 Ci/mmol) were added and the drug-exposed tumour cell cultures further incubated at 37 °C for ~20 h. Then the content of each well was transfered to glass fiber discs (Wattman, GE Healthcare, Maidstone, UK), mounted on a manifold (Millipore, Billerica, MA, USA) and subsequently washed with PBS (to remove the radiolabel material that has not been incorporated in the cellular macromolecules), 10% and 5% trichoroacetic acid (TCA) (to precipitate DNA, RNA and proteins) and ethanol. Then, the radioactivity (TCA precipitate) associated with each disc was determined in a liquid scintillation counter (Packard, Palo Alto, CA, USA).
# [4] = system: RNA synthesis in CEM cells; test: Antimetabolic activity: [5-3H]Urd incorporation (RNA synthesis) in CEM cell cultures; format: cell-based; conditions: Homo sapiens, CCRF-CEM, ~20 h, TCA-insoluble material
# From the text: as §4, §5
# [5] = system: protein synthesis in CEM cells; test: Antimetabolic activity: [4,5-3H]Leu incorporation (protein synthesis) in CEM cell cultures; format: cell-based; conditions: Homo sapiens, CCRF-CEM, ~20 h, TCA-insoluble material
# From the text: as §4, §5
IC50 (H 460 (lung carcinoma)),IC50 [1],IC50 (MCF-7 (breast carcinoma)),IC50 (SW 620 (colon carcinoma)),melting point,IC50 [3],IC50 [4],IC50 [5],SMILES,IC50 (CEM (human lymphoma)),IC50 (L1210 (murine leukemia)),IC50 [2],IC50 (HeLa (cervix carcinoma))
2 ± 0.2 µM,2 ± 0.8 µM,2 ± 0.2 µM,2 ± 0.08 µM,160 to 163 °C,–,–,–,"O=C(Nc1ccc(Oc2ccnc(C(=O)NCc3ccccc3)c2)cc1)Nc1ccc(Cl)c(C(F)(F)F)c1 [Compound 4d, 4-[4-[[4-Chloro-3-(trifluoromethyl)phenyl]carbamoylamino]phenoxy]-N-benzyl-pyridine-2-carbox-amide]",4.3 ± 0.4 µM,2 ± 0.4 µM,3.1 ± 0.2 µM,2.6 ± 0.6 µM
65 ± 33 µM,37 ± 1 µM,≥ 100 µM,≥ 100 µM,150 to 153 °C,–,–,–,"Nc1ccc(Oc2ccnc(C(=O)NC3CCCCC3)c2)cc1 [Compound 3b, 4-(4-Aminophenoxy)-N-cyclohexylpyridine-2-carboxamide]",> 100 µM,234 ± 4.5 µM,> 100 µM,> 100 µM
35 ± 12 µM,> 100 µM,≥ 100 µM,> 100 µM,116 to 119 °C,–,–,–,"O=C(NC1CCCCC1)c1cc(Cl)ccn1 [Compound 2b, 4-Chloro-N-cyclohexylpyridine-2-carboxamide]",> 100 µM,> 100 µM,> 100 µM,> 100 µM
> 100 µM,≥ 100 µM,57 ± 46 µM,> 100 µM,–,> 100 µM,> 100 µM,> 100 µM,"O=C(NCCc1ccccc1)c1cc(Cl)ccn1 [Compound 2e, 4-Chloro-N-phenylethylpyridine-2-carboxamide]",> 100 µM,> 100 µM,> 100 µM,> 100 µM
> 100 µM,≥ 100 µM,≥ 100 µM,≥ 100 µM,107 to 108 °C,> 100 µM,> 100 µM,> 100 µM,"O=C(NCC1CCCCC1)c1cc(Cl)ccn1 [Compound 2c, 4-Chloro-N-cyclohexylmethylpyridine-2-carboxamide]",> 100 µM,> 100 µM,> 100 µM,> 100 µM
2 µM,3 ± 0.8 µM,2 ± 0.6 µM,3 ± 0.2 µM,–,–,–,–,"O=C(Nc1ccc(Oc2ccnc(C(=O)NC3CCCCC3)c2)cc1)Nc1ccc(Cl)c(C(F)(F)F)c1 [Compound 4b, 4-[4-[[4-Chloro-3-(trifluoromethyl)phenyl]carbamoylamino]phenoxy]-N-cyclohexyl-pyridine-2-carboxamide]",3.6 ± 0.9 µM,3.2 ± 1.7 µM,3.2 ± 0.2 µM,3 ± 0.2 µM
> 100 µM,≥ 100 µM,≥ 100 µM,≥ 100 µM,135 to 137 °C,> 100 µM,92.1 ± 43 µM,70.6 ± 27.6 µM,"Nc1ccc(Oc2ccnc(C(=O)NCC3CCCCC3)c2)cc1 [Compound 3c, 4-(4-Aminophenoxy)-N-cyclohexylmethylpyridine-2-carboxamide]",> 100 µM,163 ± 147 µM,> 100 µM,> 100 µM
> 100 µM,≥ 100 µM,≥ 100 µM,71 ± 28 µM,70 to 72 °C,–,–,–,"O=C(NCc1ccccc1)c1cc(Cl)ccn1 [Compound 2d, 4-Chloro-N-benzylpyridine-2-carboxamide]",≥ 100 µM,≥ 100 µM,> 100 µM,> 100 µM
2 ± 0.2 µM,3 ± 0.7 µM,2 ± 0.1 µM,2 ± 0.4 µM,–,12.7 ± 9 µM,6.6 ± 1.8 µM,11.8 ± 7.7 µM,"O=C(Nc1ccc(Oc2ccnc(C(=O)NCCc3ccccc3)c2)cc1)Nc1ccc(Cl)c(C(F)(F)F)c1 [Compound 4e, 4-[4-[[4-Chloro-3-(trifluoromethyl)phenyl]carbamoylamino]phenoxy]-N-phenylethyl-pyridine-2-carboxamide]",2.5 ± 0.9 µM,2.2 ± 0.2 µM,4.6 ± 0.36 µM,1.7 ± 0.2 µM
